Data: article PMC9572521, “Synthesis, Docking Studies and Pharmacological Evaluation of Serotoninergic Ligands Containing a 5-Norbornene-2-Carboxamide Nucleus” (Molecules, 2022)
Like-named read-outs stand apart in the source and are kept apart here.

Legend:
5-HT1A receptor = target: T1, 5-HT1A receptor (Rattus norvegicus, UniProt P19327); assay: Functional 5-HT1A receptor [35S]GTPγS assay (agonist mode); type: biochemical; settings: [35S]GTPγS;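 further: male Sprague-Dawley rat hippocampal membranes incubated 90 min at 37 °C, bound label counted by scintillation after filtration, non-specific binding defined with 100 µM unlabeled GTPγS, one-site curve fit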
T1 construct: 15 μg/mL of hippocampus homogenate was incubated in triplicate with 0.8 nM; from tissue; host or cells: rat hippocampus homogenate
T1 sequence (P19327 1-422): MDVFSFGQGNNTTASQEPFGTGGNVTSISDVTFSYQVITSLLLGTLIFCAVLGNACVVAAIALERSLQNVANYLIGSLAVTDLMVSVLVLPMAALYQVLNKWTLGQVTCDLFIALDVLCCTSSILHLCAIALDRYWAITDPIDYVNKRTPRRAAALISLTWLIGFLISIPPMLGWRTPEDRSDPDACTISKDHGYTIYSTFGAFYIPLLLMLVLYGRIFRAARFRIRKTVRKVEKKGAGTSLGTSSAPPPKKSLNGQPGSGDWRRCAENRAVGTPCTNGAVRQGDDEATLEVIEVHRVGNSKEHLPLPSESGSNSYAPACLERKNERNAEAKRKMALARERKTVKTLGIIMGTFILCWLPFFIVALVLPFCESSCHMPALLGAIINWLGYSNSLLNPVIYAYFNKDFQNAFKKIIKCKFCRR

D2 receptor = target: T2, D2 receptor (Rattus norvegicus, UniProt P61169); assay: Functional D2 receptor [35S]GTPγS assay (antagonist mode vs dopamine; basal for agonism); type: biochemical; settings: against 40 µM dopamine, rat striatal homogenate;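 further: [35S]GTPγS binding counted by scintillation after 60 min at 30 °C, nonspecific binding defined with 100 µM unlabeled GTPγS, inhibition curves fitted by one-site nonlinear regression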
T2 construct: 15μg/mL of striatal homogenate was incubated in triplicate; from tissue; host or cells: rat striatum homogenate
T2 sequence (P61169 whole entry): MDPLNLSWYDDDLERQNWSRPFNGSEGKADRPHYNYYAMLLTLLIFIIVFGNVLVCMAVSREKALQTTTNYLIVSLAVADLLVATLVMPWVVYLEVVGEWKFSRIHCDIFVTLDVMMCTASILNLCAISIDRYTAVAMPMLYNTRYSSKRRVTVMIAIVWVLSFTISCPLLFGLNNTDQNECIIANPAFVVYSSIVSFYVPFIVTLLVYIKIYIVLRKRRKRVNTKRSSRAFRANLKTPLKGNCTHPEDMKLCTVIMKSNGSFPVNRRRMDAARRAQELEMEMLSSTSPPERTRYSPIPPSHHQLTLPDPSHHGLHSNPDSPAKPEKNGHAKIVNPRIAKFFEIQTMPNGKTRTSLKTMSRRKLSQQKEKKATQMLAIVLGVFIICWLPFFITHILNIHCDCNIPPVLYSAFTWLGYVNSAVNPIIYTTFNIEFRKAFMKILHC

5-HT2A receptor = 5-HT2A receptor (Rattus norvegicus, UniProt P14842); assay: 5-HT2A competition binding assay ([3H]ketanserin, frontal cortex homogenates); settings: read-out: 5-HT2A Ki (95% CI)
Sequence of 5-HT2A receptor (P14842 whole entry): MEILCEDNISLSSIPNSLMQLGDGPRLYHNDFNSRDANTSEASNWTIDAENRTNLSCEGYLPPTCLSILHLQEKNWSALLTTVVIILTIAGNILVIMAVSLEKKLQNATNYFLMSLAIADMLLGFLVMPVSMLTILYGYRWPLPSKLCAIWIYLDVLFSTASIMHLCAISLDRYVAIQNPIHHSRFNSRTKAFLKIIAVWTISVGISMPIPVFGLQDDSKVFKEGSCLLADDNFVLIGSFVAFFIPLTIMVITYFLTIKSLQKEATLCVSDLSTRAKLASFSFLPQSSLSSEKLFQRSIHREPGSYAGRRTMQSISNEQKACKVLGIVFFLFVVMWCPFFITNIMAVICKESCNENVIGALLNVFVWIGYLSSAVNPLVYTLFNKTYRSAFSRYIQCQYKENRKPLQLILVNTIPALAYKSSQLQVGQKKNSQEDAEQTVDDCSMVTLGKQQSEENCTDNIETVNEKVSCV

[1] = tested on: 5-HT2A receptors (5-HT-induced contractions in the rat ileum); assay: 5-HT-evoked contractions of isolated rat ileum; settings: for Emax, maximal inhibitory effect on 5-HT-induced contractions in the rat ileum: 5-HT 10^−5 M, compounds 10^−8–10^−5 M
human 5-HT2C receptor = target: T3, human 5-HT2C receptor (Homo sapiens, UniProt P28335); assay: 5-HT2C competition binding assay ([3H]mesulergine, transfected cell membranes); settings: [3H]mesulergine, human 5-HT2C membranes
T3 sequence (P28335 33-458): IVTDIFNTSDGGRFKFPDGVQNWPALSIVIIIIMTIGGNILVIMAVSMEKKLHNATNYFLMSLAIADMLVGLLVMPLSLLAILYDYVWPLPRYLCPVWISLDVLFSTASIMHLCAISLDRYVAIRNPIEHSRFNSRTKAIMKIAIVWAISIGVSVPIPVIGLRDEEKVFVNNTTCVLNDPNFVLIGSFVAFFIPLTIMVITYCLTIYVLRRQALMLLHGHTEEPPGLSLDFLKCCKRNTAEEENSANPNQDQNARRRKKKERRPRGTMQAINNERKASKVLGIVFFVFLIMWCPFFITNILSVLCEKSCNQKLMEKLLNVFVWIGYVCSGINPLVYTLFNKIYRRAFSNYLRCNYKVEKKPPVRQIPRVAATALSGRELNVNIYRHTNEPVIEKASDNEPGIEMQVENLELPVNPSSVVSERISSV

mice [2] = assay: Elevated plus-maze test (EPM); type: in vivo, mouse; settings: 5 mg/kg i.p., 60 min before the test
Procedure: The experiments were carried out, in the Experimental Medicine Center of Medical University of Lublin, on six-week-old naive male Swiss mice, weighing 24–30 g. The mice were housed in cages, five individuals per cage in an environmentally controlled rooms (ambient temperature 22 ± 1 °C; relative humidity 50–60%; 12 h light/dark cycle, lights on at 8:00). Standard laboratory food(LSM-Agropol-Motycz, Lublin, Poland) and filtered water were available ad libitum. All the experimental procedures were carried out, according to the National Institute of Health Guidelines for the Care and Use of Laboratory Animals and to the European Community Council Directive for the Care and Use of Laboratory Animals of 22 September 2010 (2010/63/EU) and approved by the Local Ethics Committee for Animal Experimentation in Lublin. The investigated compounds (Norbo-4, Norbo-8, Norbo-10, Norbo-14, Norbo-18 and Norbo-20) in all tests were administered intraperitoneally (i.p.), dissolved in dimethyl sulfoxide (DMSO, final concentration of 0.1%) and then diluted by aqueous solution of 0.5% methylcellulose (tylose) and injected 60 min before the tests. […] All compounds were given in a volume of 10 mL/kg to mice. The control animals received an equivalent volume of the solvent at the respective time before the tests. All the experiments were conducted in the light phase between 09.00 a.m. and 14.00 p.m. The experiments were performed by an observer unaware of the treatment administered. The EPM studies were carried out on mice according to the method of Lister. The EPM apparatus was made of plexiglass and consisted of two open (30 × 5 cm) and two enclosed (30 × 5 × 15 cm) arms. The arms extended from a central platform of 5 × 5 cm. The apparatus was mounted on a plexiglass base, raising it 38.5 cm above the floor, and illuminated by a red light. The test consisted of placing a mouse in the center of the apparatus (facing an open arm) and allowing it to freely explore. The number of entries into the open arms and the time spent in these arms were scored for a 5 min test period. An entry was defined as placing all four paws within the boundaries of the arm. The following measures were obtained from the test: the total number of arm entries; the percentage of arm entries into the open arms; and the time spent in the open arms expressed as a percentage of the time spent in both the open and closed arms. Anxiolytic activity was indicated by increases in the time spent in open arms and in the number of open arm entries. The total number of entries into either type of arm was used additionally as a measure of overall motor activity.

mice [3] = assay: Forced swim test (FST, Porsolt's test); type: in vivo, mouse; settings: 15 mg/kg i.p., 60 min before the test
Procedure: The experiments were carried out, in the Experimental Medicine Center of Medical University of Lublin, on six-week-old naive male Swiss mice, weighing 24–30 g. The mice were housed in cages, five individuals per cage in an environmentally controlled rooms (ambient temperature 22 ± 1 °C; relative humidity 50–60%; 12 h light/dark cycle, lights on at 8:00). Standard laboratory food(LSM-Agropol-Motycz, Lublin, Poland) and filtered water were available ad libitum. All the experimental procedures were carried out, according to the National Institute of Health Guidelines for the Care and Use of Laboratory Animals and to the European Community Council Directive for the Care and Use of Laboratory Animals of 22 September 2010 (2010/63/EU) and approved by the Local Ethics Committee for Animal Experimentation in Lublin. The investigated compounds (Norbo-4, Norbo-8, Norbo-10, Norbo-14, Norbo-18 and Norbo-20) in all tests were administered intraperitoneally (i.p.), dissolved in dimethyl sulfoxide (DMSO, final concentration of 0.1%) and then diluted by aqueous solution of 0.5% methylcellulose (tylose) and injected 60 min before the tests. […] All compounds were given in a volume of 10 mL/kg to mice. The control animals received an equivalent volume of the solvent at the respective time before the tests. All the experiments were conducted in the light phase between 09.00 a.m. and 14.00 p.m. The experiments were performed by an observer unaware of the treatment administered. The experiment was carried out according to the method of Porsolt et al.. Mice were individually placed in a glass cylinder (25 cm high; 10 cm in diameter) containing water maintained at 23–25 °C, and were left there for 6 min. The total duration of immobility was recorded during the last 4 min of a 6-min test session. A mouse was regarded as immobile when it remained floating on the water, making only small movements to keep its head above the water.

[4] = rat hippocampus homogenate, ± SEM, read-out: 5-HT1A Receptor G-Protein Stimulation pEC50 (converted)
[5] = read-out: D2 receptor antagonistic activity IC50 (95% CI)
[6] = read-out: D2 receptor antagonistic activity pIC50 (M ± SEM) (converted)
[7] = rat hippocampus homogenate, read-out: 5-HT1A Receptor G-Protein Stimulation EC50 (95% CI)

Compound | 5-HT1A Receptor G-Protein Stimulation Emax (%) ± SEM (5-HT1A receptor; rat hippocampus homogenate) | EC50 (5-HT1A receptor; [4]) [µM] | IC50 (D2 receptor; [5]) [µM] | IC50 (D2 receptor; [6]) [µM] | Ki (5-HT2A receptor) [µM] | Emax, maximal inhibitory effect on 5-HT-induced contractions in the rat ileum [1] [%] | Ki (human 5-HT2C receptor; read-out: 5-HT2C Ki (95% CI)) [µM] | other results
COc1ccccc1N1CCN(CCCNC(=O)C2CC3C=CC2C3)CC1 (single isomer, unassigned) [Norbo-5, Exo-N-(3-(4-(2-methoxyphenyl)piperazin-1-yl)propyl)bicyclo[2.2.1]hept-5-ene-2-carboxamide] | 140 ± 25.2 ^&& % | 10 | 33.4 | 33.9 | 0.0457 | 15.42 | 1.82 | 
O=C(c1ccc(F)cc1)C1CCN(CCn2c(=O)[nH]c3ccccc3c2=O)CC1 [Ketanserin, reference compound] |  |  |  |  |  |  |  | effect on contractions induced by 5-HT ([1]; preliminary experiments, 0.1 µM): depressed the contractions induced by 5-HT
O=C(NCCCN1CCN(c2ccccc2F)CC1)C1CC2C=CC1C2 (stereo not drawn) [Norbo-16, endo.-N-(3-(4-(2-fluorophenyl)piperazin-1-yl)propyl)bicyclo[2.2.1]hept-5-ene-2-carboxamide] | 182 ± 5.5 **^,# % |  | 41.5 |  | 0.0733 | 23.47 | 1.54 | EC50 (5-HT1A receptor; [7]): 0.939 µM
O=C(NCCCN1CCN(c2ccc(F)cc2)CC1)C1CC2C=CC1C2 (stereo not drawn) [Norbo-17, Exo-N-(3-(4-(4-fluorophenyl)piperazin-1-yl)propyl)bicyclo[2.2.1]hept-5-ene-2-carboxamide] | 122 ± 2.0 ^&&& % | 0.631 | 59.5 | 60.3 | 0.0227 | 32.50 | 2.36 | EC50 (5-HT1A receptor; [7]): 0.553 µM; Ki (human 5-HT2C receptor; ± SEM, read-out: 5-HT2C pKi (converted)): 2.4 µM
O=C(NCCCN1CCN(c2cccc(C(F)(F)F)c2)CC1)C1CC2C=CC1C2 (stereo not drawn) [Norbo-19, Exo-N-(3-(4-(3-(trifluoromethyl)phenyl)piperazin-1-yl)propyl)bicyclo[2.2.1]hept-5-ene-2-carboxamide] |  | 0.316 | 144 |  | 0.0426 | 39.00 | 0.167 | Emax (5-HT1A receptor; rat hippocampus homogenate, read-out: 5-HT1A Receptor G-Protein Stimulation Emax (%) ± SEM): 162 ± 2.1%
O=C(NCCCN1CCN(c2cccc(C(F)(F)F)c2)CC1)C1CC2C=CC1C2 (stereo not drawn) [Norbo-20, endo-N-(3-(4-(3-(trifluoromethyl)phenyl)piperazin-1-yl)propyl)bicyclo[2.2.1]hept-5-ene-2-carboxamide] | 167 ± 1.4 % | 0.2 | 52.7 | 56.2 | 0.0229 | 21.79 | 1.95 | 
O=C(NCCCN1CCN(C(=O)c2ccco2)CC1)C1CC2C=CC1C2 (stereo not drawn) [Norbo-28, endo-N-(3-(4-(furan-2-carbonyl)piperazin-1-yl)propyl)bicyclo[2.2.1]hept-5-ene-2-carboxamide] |  |  |  |  | 1.07 |  | 3.93 | 5-HT1A Receptor G-Protein Stimulation pEC50 (5-HT1A receptor; rat hippocampus homogenate, ± SEM): no activity; agonist activity at the 5-HT1A receptor (5-HT1A receptor; result in words): no agonist activity; D2 receptor antagonistic activity IC50 (95% CI, µM) (D2 receptor): no activity; D2 receptor antagonistic activity pIC50 (M ± SEM) (D2 receptor): no activity
O=C1CC2(CCCC2)CC(=O)N1CCCCN1CCN(c2ncccn2)CC1 [buspirone, reference compound] |  |  |  |  |  |  |  | percentage of the open arm entries (EPM) (mice [2]): significant increase; percentage of time spent in open arms (EPM) (mice [2]): significant increase; percentage of the open arm entries (EPM) (mice [2]; listed as Buspirone): increased the percentage of entries into the open arms; percentage of time spent in open arms (EPM) (mice [2]; listed as Buspirone): prolonged the time
CN[C@H]1CC[C@@H](c2ccc(Cl)c(Cl)c2)c2ccccc21 [sertraline, reference compound] |  |  |  |  |  |  |  | immobility time in FST (mice [3]): significant reduction in the immobility time; immobility time in FST (mice [3]; listed as Sertraline): significantly shortened the immobility time
NC1=N[C@H](O)[C@H]2[C@H]3O[C@]4(O)O[C@@H]([C@@H](O)[C@@]2(N1)[C@@H]4O)[C@]3(O)CO [tetrodotoxin, reference compound] |  |  |  |  |  |  |  | effect on contractions induced by 5-HT [1]: did not affect the contractions by 5-HT
